Test results as given in patent publication US20060057156A1, “Materials and methods for inductions of immune tolerance” (priority 2002, published 2006).
Where two headings read alike, the source gives them in different places.

Legend:
[1] = system: PBMC from EBV seropositive donors; test: Suppression of proliferative and cytokine responses to mitogen, antigens and allergens; format: cell-based, human; conditions: three EBV seropositive donors, FIG. 6
[2] = system: PBMC from EBV seropositive donors; format: cell-based, human; conditions: for IL-10 secretion by PBMC: EBV seropositive donors, peptides at 15 μg/ml, ELISA five days after stimulation; for gamma-IFN induction: control peptides of FIG. 6, seropositive donors

| Substance | effect on proliferative and gamma-IFN responses against recall antigen (PPD) [1] | IL-10 secretion by PBMC [2] | further results |
| --- | --- | --- | --- |
| PRGPPLSSSLGLALLLLLLA [P4] | inhibit proliferative responses | IL-10 inducing | percentage of EBV seropositive donors whose PBMC responded with IL-10 ([2]; 20 seropositive donors, peptide 15 μg/ml): 80% |
| LFIFGCLLVLGIWIYLLEML [P23] | inhibit proliferative responses | IL-10 inducing |  |
| LLWLLLFLAILIWMYYHGQR [P35] | inhibit proliferative responses | IL-10 inducing |  |
| LILLIIALYLQQNWWTLLVD [P31] | inhibit proliferative responses | IL-10 inducing |  |
| LLFWLYIVMSDWTGGALLVL [P8] |  | shown to induce IL-10 |  |
| HDPLPQDPDNTDDNGPQDPD [P56] |  |  | gamma-IFN induction [2]: gamma-IFN inducing |
| LLLLALLFWLYIVMSDWTGG [P7] | inhibit proliferative responses | IL-10 inducing | IL-10 secretion by PBMC ([2]; listed as peptide 7): one of many effective Tr1 IL-10 inducers |
| concanavalin A [Con A, reference compound] |  |  | response pattern to control mitogen / recall antigen ([2]; regardless of EBV serological status): induced responses dominated by proliferation and γ-IFN production |
| QQNWWTLLVDLLWLLLFLAI [P33] |  |  | gamma-IFN induction [2]: gamma-IFN inducing |
| FLGIVLFIFGCLLVLGIWIY [P22] | inhibit proliferative responses | IL-10 inducing |  |
| LLLMITLLLIALWNLHGQAL [P18] | inhibit proliferative responses | IL-10 inducing |  |
| ILIIFIFRRDLLCPLGALCI [P14] |  | shown to induce IL-10 |  |
| TIWQLLAFFLAFFLDLILLY [P28] |  |  | gamma-IFN induction [2]: gamma-IFN inducing |
